Measured values as given in article PMC12267067, “Targeting GRPR for sex hormone-dependent cancer after loss of E-cadherin” (Nature, 2025).

Tests used:
[1] = Metabolic stability assay (liver microsomes); type: in vitro ADME, mouse
Method: Each compound was diluted to a final concentration of 1 µM in 100 mM phosphate buffer (pH 7.4) containing 0.5 mg ml^−1 mouse liver microsomes, 1 mM NADPH regenerating system and 1 mM MgCl2 and incubated at 37 °C for 1 h. At various time points (0, 2, 10, 20, 40 and 60 min), one volume of ice-cold acetonitrile was added and the supernatants were analysed by LC–MS/MS. To obtain a stability curve, the percentage of remaining test compound at each time point was determined by monitoring the peak area. The half-life was estimated from the slope of the initial linear range of the logarithmic curve of the remaining compound (percentage) against time, assuming first-order kinetics.
Analyses were done on a Shimadzu 8030 LC–MS instrument. Chromatographic separations were done at 40 °C using a 2.6-µm C18 Kinetex column (50 × 2.1 mm; Phenomenex). The mobile phase flow rate was set to 0.5 ml min^−1 and the following program applied for the elution: 0 min, 5% B; 0–1.2 min, 5–95% B; 1.2–1.4 min, 95% B; 1.4–1.42 min, 95-5% B; and 1.42–2.8 min, 5% B (solvent A, 0.05% formic acid in water; solvent B, acetonitrile). The injection volume was 1 µl. The mass spectrometer was interfaced with the liquid-chromatography system using an electrospray ion source. The nitrogen nebulizing gas flow was set to 1.5 l min^−1 and the drying gas flow to 15 ml min^−1. […]

[2] = test system: 1057 ΔEcad melanoma cells; test: ICI/Fulvestrant experiments: lung metastases after tail-vein injection of 1057 cells; type: in vivo, C57BL/6J mice
Method: Mouse and human melanoma cells (5 × 10^5) were suspended in 200 µl PBS and injected into the tail veins of eight-week-old C57BL/6J and NSG mice, respectively. Mice were monitored daily and weighed twice weekly. Euthanasia and autopsy were performed following 20% weight loss or reaching ethical end points.
Right lungs were imaged using a Leica MZFLIII binocular microscope with a Scion camera. Metastases were quantified in ImageJ, with macro-metastases (bigger than 0.1 mm) and micro-metastases (0.1 mm or smaller).
In vitro pre-treatment: 1057 melanoma cells (5 × 10^5) were pretreated for 3 days with 1 µM ICI before tail-vein injection. In vivo treatment: 1057 melanoma cells (5 × 10^5) were injected into C57BL/6J mice, followed by […] Fulvestrant (Zentiva) 3 h after injection, then weekly for 3 weeks. Mice were euthanized on day 25 after injection, and lung metastases were assessed by PCR-based Cre transgene detection. DNA was extracted from lung tissue and metastasis burden was analysed statistically.

[3] = test system: GRPR mRNA in MCF7 cells; test: Pharmacological targeting of ERα: GRPR mRNA in MCF7 cells; type: cell-based, human; details: 17β-estradiol 100 nM or ICI 182,780 1 µM
Method: (§1) RNA (3 µg) was reverse transcribed using M‐MLV reverse transcriptase (Invitrogen), according to the manufacturer’s protocol. The newly synthesized cDNA was used as a template for qPCR with the iTaq Universal SYBR Green Supermix. Technical triplicates were used for each sample and the quantified RNA normalized against TBP (human) or Hprt (mouse) as housekeeping transcripts (Supplementary Tables 9 and 10).
(§2) For hormone depletion, FCS was stripped using the dextran-coated charcoal method. In brief, Norit activated charcoal (C6241-5G, Sigma-Aldrich, final concentration of 0.25%) and Dextran T-70 (31390, Sigma-Aldrich, final concentration of 0.0025%) in 0.25 M sucrose/1.5 mM MgCl2/10 mM HEPES (H4034, Sigma-Aldrich), pH 7.4, were incubated overnight at 4 °C. The volume equivalent to the volume of the FCS to strip was pipetted into a new 50 ml tube and centrifugated at 500g for 10 min to remove the supernatant. The FCS was incubated with the activated charcoal for 12 h at 4 °C. The treated FCS was then filtered through a 0.22-µM pore filter to ensure sterility and mixed with the appropriate phenol red-free medium and PS. Cells were collected using phenol red-free trypsin and starved for oestrogen using phenol red-free/10% stripped FCS for four days. […]

[4] = test system: Grpr expression in ESR1pos 1057 melanoma cells; test: Pharmacological targeting of ERα: Grpr expression in 1057 cells; type: cell-based, mouse; details: 100 nM E2 or 1 µM ICI 182,780, 72 h, after oestrogen starvation for four days
Method: as §1, §2

[5] = test system: mouse melanoma cell lines (1057, 1064, 1181, 1039, 1456, 1014); test: Matrigel invasion assay, mouse melanoma cells; type: cell-based; details: 24 h
Method: Matrigel invasion assays were done in transwell plates with 8.0-µm pores (353097, Falcon) coated with 100 µl of 200 µg ml^−1 Matrigel. Depending on the experiments, cells were seeded directly or 24 h after transfection in low-serum medium (0.5% FCS for murine cells and 1% for human cell lines) with 10 nM GRP, 1 µM RC-3095, and/or 1 µM IC 182,780, or in 10% FCS. Then, 24 hours after stimulation, inserts were washed with PBS and non-invading cells were removed. Cells in the inserts were fixed in methanol at −20 °C overnight. The inserts were rinsed and the membrane carefully removed using a sharp scalpel. The membrane was mounted in prolong glass DAPI (1.5 µg ml^−1). Assays were performed in triplicate and automatic counting of invading cells was done using an Image/Fiji macro (10.5281/zenodo.14509394). Sequences of siRNAs are given in Supplementary Table 11.

[6] = target: T1, ERα in 1057 mouse melanoma cells (Mus musculus, UniProt P19785); test: Western blot of ERα after ICI; type: cell-based; details: 1057 cells, ICI 1 μM, 24 h
T1 construct: Effect of ICI treatment on ERα protein levels in murine 1057 melanoma cells; endogenous in cells; host or cells: 1057 mouse melanoma cells (female, ΔEcad, Esr1-positive)
T1 sequence (P19785 1-599): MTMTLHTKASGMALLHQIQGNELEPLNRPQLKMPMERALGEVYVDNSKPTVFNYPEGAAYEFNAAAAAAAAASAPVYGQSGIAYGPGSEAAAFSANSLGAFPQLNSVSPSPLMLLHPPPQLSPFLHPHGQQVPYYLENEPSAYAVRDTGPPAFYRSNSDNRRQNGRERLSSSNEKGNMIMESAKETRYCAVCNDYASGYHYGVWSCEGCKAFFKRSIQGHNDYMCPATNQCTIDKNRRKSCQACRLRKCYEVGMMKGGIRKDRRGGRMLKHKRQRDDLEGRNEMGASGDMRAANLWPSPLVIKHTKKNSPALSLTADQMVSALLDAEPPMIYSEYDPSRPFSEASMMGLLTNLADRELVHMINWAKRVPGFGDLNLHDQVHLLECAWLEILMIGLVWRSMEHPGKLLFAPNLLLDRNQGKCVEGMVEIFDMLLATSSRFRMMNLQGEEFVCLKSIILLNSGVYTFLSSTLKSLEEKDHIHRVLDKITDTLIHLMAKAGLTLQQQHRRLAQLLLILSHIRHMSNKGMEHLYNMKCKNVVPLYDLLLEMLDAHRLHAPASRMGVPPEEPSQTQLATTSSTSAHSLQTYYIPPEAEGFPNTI
Method: (§3) Whole-cell lysates were prepared and analysed as described previously. The primary antibodies used were: E-cadherin (610182, BD Transduction Laboratories, dilution 1/1,000); ERα (MA1-27107, Invitrogen, dilution 1/500); YAP (14074, Cell Signaling, dilution 1/1,000); β-actin (A5441, Sigma, dilution 1/5,000); and vinculin (4650, Cell Signaling, dilution 1/5,000). All raw data are provided in Supplementary Fig. 1.

[7] = test system: GRPR, Gαq/11 activation; test: IP1 detection (HTRF IP-one Gq kit); type: cell-based, mouse; details: 4,000 cells, 30 min, 37 °C, StimB buffer, 10 nM GRP, 1 µM RC-3095, 1 µM ICI-182,780 (pre-treatment)
Method: IP1 levels were quantified using the HTRF IP-one Gq detection kit (62IPAPEB, Revvity) following the manufacturer’s protocol. We treated 4,000 cells for 30 min at 37 °C in StimB buffer with 10 nM GRP, 1 µM RC-3095, 1 µM ICI-182,780 or DMSO. FRET signals (620 nm and 665 nm, excitation at 385 nm) were measured using a Clariostar plate reader (BMG Labtech).

[8] = test system: ΔEcad mouse 1057 melanoma cells; test: RT-qPCR of β-catenin targets, Esr1 and Grpr after β-catenin inhibition; type: cell-based; details: ΔEcad mouse 1057 cells, iCRT3 10 μM, 48 h (with siRNA targeting Ctnnb1)
Method: as §1

[9] = test system: Daju human melanoma cells; test: RT-qPCR and western blot of ESR1/ERα after iCRT3; type: cell-based; details: iCRT3 80 μM, 48 h
Method: as §1, §3

COc1ccc(C2(CNC(=O)[C@](C)(Cc3c[nH]c4ccccc34)NC(=O)Nc3ccc([N+](=O)[O-])cc3)CCCCC2)nc1 [PD-176252]
Metabolic stability: t1/2 ([1]; mouse, pH 7.4): 1.5 ± 0.1 min

CC(C)C[C@@H](CN[C@@H](CC(C)C)C(N)=O)NC(=O)[C@H](Cc1c[nH]cn1)NC(=O)CNC(=O)[C@@H](NC(=O)[C@H](C)NC(=O)[C@H](Cc1c[nH]c2ccccc12)NC(=O)[C@H](CCC(N)=O)NC(=O)[C@H]1Cc2c([nH]c3ccccc23)CN1)C(C)C [RC-3095]
metabolic stability, comparison of the two GRPR antagonists ([1]; RC-3095 versus PD-176252, murine plasma and liver microsomes): higher metabolic stability

C[C@]12CC[C@@H]3c4ccc(O)cc4C[C@@H](CCCCCCCCC[S+]([O-])CCCC(F)(F)C(F)(F)F)[C@H]3[C@@H]1CC[C@@H]2O (stereo partly shown) [ICI 182,780]
Visible metastases (%): mice with visible lung metastases / mice injected [2]: 1/6 | mice with no metastases ([2]; Fulvestrant 50 mg per kg 3 h after injection of 1057 cells and weekly for three weeks, day 25): 5 of 6 | Metastatic burden in lungs, qPCR for the 1057-specific Cre transgene ([2]; Fulvestrant-treated mice (50 mg per kg), day 25): reduced | Metastatic burden in lungs, qPCR for the 1057-specific Cre transgene ([2]; ICI-pretreated 1057 cells, day 25): reduced | mice with no visible metastases ([2]; mice injected with ICI-pretreated 1057 cells (3 days, 1 µM), day 25, control 1 of 11): 9 of 13 | GRPR mRNA expression [3]: significantly decreased | Grpr expression [4]: reduced it | invasion potential of 1057 cells, ICI alone ([5]; 1 µM ICI without GRP): no effect | invasion (number of invading cells), GRPR-positive mouse lines ([5]; 1057 (also 1064, GRPR-transduced 1014 and 1181 for RC-3095), 10 nM GRP, 1 µM RC-3095 and/or 1 µM ICI, Matrigel 200 µg ml−1, 0.5% FCS): significantly reduced | invasion (number of invading cells), Grpr-negative mouse lines ([5]; 1181 male Ecad, 1039 female Ecad, 1456 male ΔEcad, 10 nM GRP and/or 1 µM ICI): no effect | ERα protein level [6]: reduced | IP1 production, GRPR-positive cells [7]: reduced IP1 production

C[C@]12CC[C@@H]3c4ccc(O)cc4CC[C@H]3[C@@H]1CC[C@@H]2O [E2, 17β-oestradiol]
GRPR mRNA expression [3]: increased GRPR | Grpr expression [4]: increased Grpr expression

CCc1ccc(-c2nc(CSCC(=O)NCCc3ccccc3)c(C)o2)cc1 [iCRT3]
expression of Nkd1, Esr1 and Grpr (RT-qPCR) [8]: decreased the expression of Nkd1, Esr1 and Grpr | GRP-induced invasion after β-catenin inhibition ([5]; 1057 cells, iCRT3 and/or GRP): reduced GRP-induced invasion | ERα levels at RNA and protein level [9]: reduction
